This passage reports IC50 and inhibition results from ChEMBL document CHEMBL3112477, “Rat intestinal sucrase inhibition of constituents from the roots of Rosa rugosa Thunb” (Bioorg Med Chem Lett, 2014).

Assay [1] deals with Sucrase-isomaltase, intestinal (Rattus norvegicus, UniProt P23739). The assay is described as follows: Inhibition of rat intestinal sucrase using p-nitrophenyl-alpha-d-glucopyranoside as substrate incubated for 10 mins prior to substrate addition measured after 5 mins by spectrophotometry.
In assay [2] the target is Sucrase-isomaltase, intestinal (Rattus norvegicus) (UniProt P23739). The assay is described as follows: Inhibition of rat intestinal sucrase using p-nitrophenyl-alpha-d-glucopyranoside as substrate at 1 mM incubated for 10 mins prior to substrate addition measured after 5 mins by spectrophotometry.
Sucrase-isomaltase, intestinal (Rattus norvegicus), sequence (P23739 1-1013 limits assumed): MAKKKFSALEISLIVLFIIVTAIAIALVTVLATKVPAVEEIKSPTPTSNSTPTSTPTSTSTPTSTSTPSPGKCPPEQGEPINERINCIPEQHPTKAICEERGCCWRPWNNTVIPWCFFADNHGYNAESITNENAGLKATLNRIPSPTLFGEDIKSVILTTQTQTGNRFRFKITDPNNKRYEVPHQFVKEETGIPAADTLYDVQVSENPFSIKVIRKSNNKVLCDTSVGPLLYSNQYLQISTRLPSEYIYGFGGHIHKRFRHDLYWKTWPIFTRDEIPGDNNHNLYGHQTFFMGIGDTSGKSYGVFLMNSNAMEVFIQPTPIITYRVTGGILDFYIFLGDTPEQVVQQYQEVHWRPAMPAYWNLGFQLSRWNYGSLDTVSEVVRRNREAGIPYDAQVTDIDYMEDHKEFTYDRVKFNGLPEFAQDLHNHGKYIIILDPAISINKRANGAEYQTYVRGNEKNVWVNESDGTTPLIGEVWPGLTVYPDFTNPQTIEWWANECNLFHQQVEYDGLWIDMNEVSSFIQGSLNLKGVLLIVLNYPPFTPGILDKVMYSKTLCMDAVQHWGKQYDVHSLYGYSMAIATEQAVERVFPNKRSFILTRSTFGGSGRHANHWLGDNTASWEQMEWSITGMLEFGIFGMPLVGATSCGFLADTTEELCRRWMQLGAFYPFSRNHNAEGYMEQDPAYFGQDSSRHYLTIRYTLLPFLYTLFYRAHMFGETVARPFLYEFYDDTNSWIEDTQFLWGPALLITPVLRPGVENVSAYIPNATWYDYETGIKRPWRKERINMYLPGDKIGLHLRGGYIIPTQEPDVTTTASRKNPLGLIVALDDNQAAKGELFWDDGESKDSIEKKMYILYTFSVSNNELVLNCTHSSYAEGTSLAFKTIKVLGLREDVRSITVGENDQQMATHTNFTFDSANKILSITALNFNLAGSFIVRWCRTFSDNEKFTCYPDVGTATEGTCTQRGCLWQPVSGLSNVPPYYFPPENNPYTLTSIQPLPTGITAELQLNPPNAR
Sucrase-isomaltase, intestinal (Rattus norvegicus), sequence (P23739 1014-1841 limits assumed): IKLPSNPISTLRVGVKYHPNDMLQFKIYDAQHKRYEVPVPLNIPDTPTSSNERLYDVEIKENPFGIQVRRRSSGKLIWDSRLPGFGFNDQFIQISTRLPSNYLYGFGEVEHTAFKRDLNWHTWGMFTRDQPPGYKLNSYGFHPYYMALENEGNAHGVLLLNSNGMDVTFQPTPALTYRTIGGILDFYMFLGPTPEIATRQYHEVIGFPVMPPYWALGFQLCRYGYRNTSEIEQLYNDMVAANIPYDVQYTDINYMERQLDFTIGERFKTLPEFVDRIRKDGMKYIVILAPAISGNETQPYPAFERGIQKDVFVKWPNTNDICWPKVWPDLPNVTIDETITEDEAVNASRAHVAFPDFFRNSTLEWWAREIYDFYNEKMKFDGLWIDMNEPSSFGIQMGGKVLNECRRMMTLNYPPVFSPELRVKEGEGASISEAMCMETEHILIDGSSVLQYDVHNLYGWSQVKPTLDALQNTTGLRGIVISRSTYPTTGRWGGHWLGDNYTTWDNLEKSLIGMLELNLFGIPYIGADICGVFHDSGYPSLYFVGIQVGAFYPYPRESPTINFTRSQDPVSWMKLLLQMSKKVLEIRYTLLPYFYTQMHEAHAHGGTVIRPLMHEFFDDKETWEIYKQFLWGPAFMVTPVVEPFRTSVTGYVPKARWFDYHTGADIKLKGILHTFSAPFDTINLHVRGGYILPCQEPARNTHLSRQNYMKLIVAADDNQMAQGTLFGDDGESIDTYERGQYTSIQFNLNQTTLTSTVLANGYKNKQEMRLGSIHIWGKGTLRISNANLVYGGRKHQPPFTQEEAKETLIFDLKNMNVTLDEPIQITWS

Sucrase-isomaltase, intestinal, sequence (P23739 1-1013 limits assumed): as the sequence (P23739 1-1013 limits assumed) above
Sucrase-isomaltase, intestinal, sequence (P23739 1014-1841 limits assumed): as the sequence (P23739 1014-1841 limits assumed) above

In general, IC50 refers to the point on the concentration scale where inhibition reaches its midpoint. Lower therefore signals greater potency. The term inhibition denotes the change of the read-out against control, counted positive when it falls. A high value points to a strong effect. In the case of `Oc1ccc([C@@H]2Oc3cc(O)ccc3[C@H](c3c(O)cc(O)c4c3O[C@H](c3ccc(O)c(O)c3)[C@H](O)C4)[C@H]2O)cc1`, in assay [1], half-maximal inhibition (IC50) was put at 250 µM. The molecule further displayed an inhibition in assay [2] of 84.7%.
The corresponding values for `CC1=CC(=O)CC(C)(C)[C@H]1/C=C/[C@@H](C)O[C@@H]1O[C@H](CO)[C@@H](O)[C@H](O)[C@H]1O` are more than 1000 µM and 12.5%.
In assay [2], `C[C@@H]1CC[C@]2(C(=O)O)CC[C@]3(C)C(=CC[C@@H]4[C@@]5(C)CC(=O)[C@H](O)C(C)(C)[C@@H]5CC[C@]43C)[C@@H]2[C@]1(C)O` gave an inhibition of less than 10%.
In turn, `C[C@H]1O[C@H](O[C@H]2[C@H](O)[C@@H](O)[C@@H](O[C@H]3[C@H](O)[C@@H](O)C(O)O[C@@H]3CO)O[C@@H]2CO)[C@H](O)[C@@H](O)[C@@H]1N[C@H]1C=C(CO)[C@@H](O)[C@H](O)[C@H]1O` (some centres not stated) showed an inhibition in assay [2] of 51%.
`Oc1ccc([C@H]2Oc3cc(O)ccc3[C@H](c3c(O)cc(O)c4c3O[C@H](c3ccc(O)c(O)c3)[C@H](O)C4)[C@H]2O)cc1`: the IC50 in assay [1] is 480 µM. The molecule also showed an inhibition in assay [2] of 68.4%.
In assay [1], `CC1=CC(=O)CC(C)(C)/C1=C/CC(C)O[C@@H]1O[C@H](CO)[C@@H](O)[C@H](O)[C@H]1O` (some centres not stated) returned an IC50 of more than 1000 µM. In assay [2], this molecule showed an inhibition of 28.3%.
As for `C[C@@H]1CC[C@]2(C(=O)O)CC[C@]3(C)C(=CC[C@@H]4[C@@]5(C)C=C(O)C(=O)C(C)(C)[C@@H]5CC[C@]43C)[C@@H]2[C@]1(C)O`, the inhibition in assay [2] was less than 10%.
Take `Oc1cc(O)c2c(c1)O[C@H](c1ccc(O)c(O)c1)[C@H](O)C2` [(-)-EPICATECHIN]: in assay [1], the midpoint of inhibition, the IC50, lay at 650 µM. This molecule also registered an inhibition in assay [2] of 61.9%.
The corresponding values for `CC1=CC(=O)CC(C)(C)/C1=C\CC(C)O[C@@H]1O[C@H](CO)[C@@H](O)[C@H](O)[C@H]1O` (some centres not stated) are more than 1000 µM and 28.6%.
Regarding `C=C(C)[C@@H]1CC[C@]2(C(=O)O)CC[C@]3(C)[C@H](CC[C@@H]4[C@@]5(C)CC[C@H](O)C(C)(C)[C@@H]5CC[C@]43C)[C@@H]12`, in assay [2], the inhibition is less than 10%.
`CC1(C)C=C(C=O)[C@]2(C)[C@H]3CC=C4[C@@H]5[C@H](O)C(C)(C)CC[C@]5(C(=O)O)CC[C@@]4(C)[C@]3(C)CC[C@@H]12` gave an IC50 in assay [1] of more than 1000 µM. In assay [2], this molecule showed an inhibition of 32.4%.
The corresponding values for `Oc1cc(O)c2c(c1)O[C@H](c1ccc(O)c(O)c1)[C@@H](O)[C@@H]2c1c(O)cc(O)c2c1O[C@H](c1ccc(O)c(O)c1)[C@@H](O)C2` are 430 µM and 76%.
In assay [1], `Oc1cc(O)c2c(c1)O[C@@]1(c3ccc(O)c(O)c3)Oc3cc(O)c4c(c3[C@@H]2[C@H]1O)O[C@@H](c1ccc(O)c(O)c1)[C@H](O)[C@H]4c1c(O)cc(O)c2c1O[C@H](c1ccc(O)c(O)c1)[C@H](O)C2` [AESCULTITANNIN B] gave an IC50 of 400 µM. Moreover, in assay [2], the inhibition stood at 66.8%.
The corresponding values for `C[C@H]1[C@H](C)CC[C@]2(C(=O)O)CC[C@]3(C)C(=CC[C@@H]4[C@@]5(C)CC[C@H](O)C(C)(C)[C@@H]5CC[C@]43C)[C@H]12` [URSOLIC ACID] are more than 1000 µM and 32%.
The corresponding values for `CC1=CC(=O)CC(C)(C)[C@H]1/C=C/[C@H](C)O[C@@H]1O[C@H](CO)[C@@H](O)[C@H](O)[C@H]1O` are more than 1000 µM and 14%.
For the molecule `Oc1ccc2c(c1)O[C@H](c1ccc(O)c(O)c1)[C@@H](O)[C@@H]2c1c(O)cc2c(c1O)C[C@H](O)[C@@H](c1ccc(O)c(O)c1)O2`, inhibition in assay [1] was half-maximal at 520 µM (IC50). Moreover, in assay [2], the inhibition came to 72.2%.
The corresponding values for `Oc1cc(O)c2c(c1)O[C@H](c1ccc(O)c(O)c1)[C@@H](O)C2` [CIANIDANOL] are 310 µM and 80%.
In assay [1], `CC1(C)[C@@H](O)CC[C@]2(C)[C@H]3CC[C@@H]4C=C[C@H](O)[C@@]4(C)[C@]3(C)CC[C@@H]12` displayed an IC50 of more than 1000 µM. In assay [2], this molecule gave an inhibition of 40%.
